In ChEMBL document CHEMBL1201862, “PubChem BioAssay data set” (2004):
Calls of active or inactive are those of the source.

Assays:
[1] = target: Cytochrome P450 2D6 (Homo sapiens, UniProt P10635);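 further: CYP2D6 member of a cytochrome P450 panel assay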
[2] = target: T1, Cytochrome P450 1A2 (Homo sapiens, UniProt P05177);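 further: PubChem cytochrome P450 panel assay, CYP1A2 panel member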
T1 sequence (P05177 whole entry): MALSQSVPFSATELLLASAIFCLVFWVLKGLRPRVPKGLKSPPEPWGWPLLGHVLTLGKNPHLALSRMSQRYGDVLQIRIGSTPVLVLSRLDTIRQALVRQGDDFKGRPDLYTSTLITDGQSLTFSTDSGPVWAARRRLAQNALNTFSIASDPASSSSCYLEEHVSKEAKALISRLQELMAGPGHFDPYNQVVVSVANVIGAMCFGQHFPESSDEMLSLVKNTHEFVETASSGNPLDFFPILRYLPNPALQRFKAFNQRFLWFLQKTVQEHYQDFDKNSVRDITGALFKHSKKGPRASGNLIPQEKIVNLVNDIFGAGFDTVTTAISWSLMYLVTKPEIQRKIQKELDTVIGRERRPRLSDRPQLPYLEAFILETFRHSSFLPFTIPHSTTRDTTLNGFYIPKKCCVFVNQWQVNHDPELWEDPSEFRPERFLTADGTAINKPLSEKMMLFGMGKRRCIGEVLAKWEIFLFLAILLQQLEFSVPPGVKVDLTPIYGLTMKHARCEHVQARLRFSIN

[3] = NIH-3T3 fibroblast cytotoxicity, dose response, cytotoxicity control, cell-based, fluorescence, Alamar Blue, secondary assay (AID 2327); format: functional;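 further: NIH-3T3 mouse fibroblasts cultured with fluconazole at 8 µg/mL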
[4] = target: T2, Microphthalmia-associated transcription factor (Homo sapiens, UniProt O75030); experiment: TRPM1 promoter luciferase signal decrease, dose response, MITF inhibitor project, cell-based, SK-MEL-5, cherry-picked, set 3 (AID 493073); format: functional
T2 sequence (O75030 whole entry): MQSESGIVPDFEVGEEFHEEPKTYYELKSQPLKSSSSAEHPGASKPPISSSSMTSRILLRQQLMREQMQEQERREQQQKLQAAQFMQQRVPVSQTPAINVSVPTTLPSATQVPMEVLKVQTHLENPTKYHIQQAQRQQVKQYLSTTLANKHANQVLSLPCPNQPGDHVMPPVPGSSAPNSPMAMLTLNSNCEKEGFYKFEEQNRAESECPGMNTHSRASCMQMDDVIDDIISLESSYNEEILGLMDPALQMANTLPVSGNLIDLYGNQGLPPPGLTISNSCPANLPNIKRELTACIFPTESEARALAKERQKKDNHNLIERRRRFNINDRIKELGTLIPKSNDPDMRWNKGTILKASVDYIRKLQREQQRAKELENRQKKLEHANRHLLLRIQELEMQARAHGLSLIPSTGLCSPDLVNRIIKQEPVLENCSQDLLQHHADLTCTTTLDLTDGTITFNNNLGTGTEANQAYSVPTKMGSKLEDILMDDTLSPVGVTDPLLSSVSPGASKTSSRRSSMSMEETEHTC

[5] = tested on: INS1; experiment: beta cell apoptosis inhibitors, cytokine rescue, dose response, luminescence, retest (AID 449756); format: functional, cell-based; conditions: Rattus norvegicus;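 further: cell death triggered by IL-1 beta plus TNF-alpha plus IFN-gamma mixture; protective hits raise ATP signal compared with cytokine alone wells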
[6] = tested on: A-375; experiment: MITF: Counter assay: A375 proliferation Measured in Cell-Based System Using Plate Reader - 2084-03_Inhibitor_Dose_DryPowder_Activity. [Related pubchem assays (depositor defined):AID488944]; format: functional; conditions: Homo sapiens
[7] = cytotoxicity in HEK-293T NF-kB-Luc cells, dose response, cytotoxicity control for B/T-cell NF-kB inhibitor project, cell-based, uHTS hits (AID 489019); format: functional;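 further: IC50 reflects cytotoxicity as loss of cell viability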
[8] = C. albicans growth with fluconazole, confirmation, fluorescence, retest (AID 2467); format: functional, cell-based
[9] = tested on: Jurkat; experiment: antigen receptor-induced NF-kB inhibitors, dose response, Jurkat, luciferase reporter, luminescence, B- and T-cell (AID 489004); format: functional, cell-based; conditions: Homo sapiens;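 further: NF-kB luciferase reporter Jurkat cells stimulated with PMA plus ionomycin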
[10] = target: T3, RNA-binding protein pos-1 (Caenorhabditis elegans, UniProt G5EF15); experiment: inhibitors of POS-1/mex-3 RNA binding, dose response, biochemical, fluorescence polarization (AID 1964);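 further: purified POS-1 fused to maltose binding protein made in E. coli; potency of compounds blocking POS-1 binding to fluorescent RNA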
T3 sequence (G5EF15 whole entry): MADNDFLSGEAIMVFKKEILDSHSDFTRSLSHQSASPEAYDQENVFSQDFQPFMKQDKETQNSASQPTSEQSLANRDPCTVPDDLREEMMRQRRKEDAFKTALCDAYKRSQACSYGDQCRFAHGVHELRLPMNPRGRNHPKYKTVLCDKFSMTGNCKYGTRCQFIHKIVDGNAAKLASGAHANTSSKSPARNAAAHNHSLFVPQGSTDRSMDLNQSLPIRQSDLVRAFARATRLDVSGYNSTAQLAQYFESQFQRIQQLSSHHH

[11] = target: Vasopressin V1a receptor (Homo sapiens, UniProt P37288); experiment: Fluorescence-based cell-based high throughput dose response screening assay for agonists of the vasopressin 1 receptor (V1R).; format: functional
[12] = growth suppression of PTEN-null colon cells, dose response, cell-based, HCT116 PTEN knockout (AID 1047); format: functional;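 further: HCT116 colon tumor cells with PTEN knocked out; cells exposed to compound for 60 hours before readout; potency for loss of cell viability measured by luminescence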
[13] = target: UDP-galactopyranose mutase (Mycobacterium tuberculosis, UniProt P9WIQ1); experiment: Inhibitors of Mycobacterium tuberculosis UDP-galactopyranose mutase (UGM) enzyme Measured in Biochemical System Using Plate Reader - 2105-02_Inhibitor_Dose_CherryPick_Activity. [Related pubchem assays (depositor defined):AID504439]
[14] = target: T4, Zinc finger protein mex-5 (Caenorhabditis elegans, UniProt Q9XUB2); experiment: MEX-5/TCR-2 RNA interaction inhibitors, dose response, biochemical, C. elegans, fluorescence polarization (AID 1960)
T4 sequence (Q9XUB2 whole entry): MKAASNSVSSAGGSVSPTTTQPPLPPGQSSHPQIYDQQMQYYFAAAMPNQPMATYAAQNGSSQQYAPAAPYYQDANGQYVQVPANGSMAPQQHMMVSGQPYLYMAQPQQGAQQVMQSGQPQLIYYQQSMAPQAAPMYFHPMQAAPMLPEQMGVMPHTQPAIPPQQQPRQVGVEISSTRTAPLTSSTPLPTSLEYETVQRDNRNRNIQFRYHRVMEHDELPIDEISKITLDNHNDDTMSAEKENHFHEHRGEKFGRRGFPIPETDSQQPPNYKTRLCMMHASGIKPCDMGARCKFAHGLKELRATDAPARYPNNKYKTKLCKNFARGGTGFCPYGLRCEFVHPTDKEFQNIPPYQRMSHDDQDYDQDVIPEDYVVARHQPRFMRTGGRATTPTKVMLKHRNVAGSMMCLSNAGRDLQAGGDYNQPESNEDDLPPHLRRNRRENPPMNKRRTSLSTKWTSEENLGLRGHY

[15] = target: Oxytocin receptor (Homo sapiens, UniProt P30559); experiment: Counterscreen for vasopressin 1 receptor (V1R) agonists: Fluorescence-based cell-based high throughput dose response assay for agonists of the Oxytocin Receptor (OXTR). [Related pubchem assays: 2435 (Primary screen (OXTR agonists in singlicate)), 434964 (Confirmation screen (V1R agonists in triplicate)), 434969 (Counterscreen (OXTR agonists in …; format: functional
[16] = growth suppression of beta-catenin-knockout colon cells, dose response, cell-based, HCT116, human colon tumor (AID 1045); format: functional;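 further: HCT116 colon tumor cells with beta catenin knocked out; cells exposed to compound for 60 hours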
[17] = tested on: H4; experiment: Luminescence Cell-Based Dose Response HTS to Identify Activators of 5'UTR Stem-Loop Driven Prion Protein mRNA Translation in H4 Neuroglioblastoma Cells. [Related pubchem assays: 1829 (Project Summary), 1814 (Primary HTS)]; format: functional; conditions: Homo sapiens
[18] = Luminescence Cell-Based Dose Confirmation HTS to Identify Activators of 5'UTR Stem-Loop Driven Alpha-Synuclein mRNA Translation in H4 Neuroglioblastoma Cells. [Related pubchem assays: 1829 (Project Summary), 1814 (Primary HTS)]; format: functional
[19] = Luminescence Cell-Based Dose Response HTS to Identify Activators of Luciferase Translation or Activity in H4 […] Cells. [Related pubchem assays: 1829 (Project Summary), 1814 (Primary HTS)]; format: functional

Chain of UDP-galactopyranose mutase (P9WIQ1 whole entry): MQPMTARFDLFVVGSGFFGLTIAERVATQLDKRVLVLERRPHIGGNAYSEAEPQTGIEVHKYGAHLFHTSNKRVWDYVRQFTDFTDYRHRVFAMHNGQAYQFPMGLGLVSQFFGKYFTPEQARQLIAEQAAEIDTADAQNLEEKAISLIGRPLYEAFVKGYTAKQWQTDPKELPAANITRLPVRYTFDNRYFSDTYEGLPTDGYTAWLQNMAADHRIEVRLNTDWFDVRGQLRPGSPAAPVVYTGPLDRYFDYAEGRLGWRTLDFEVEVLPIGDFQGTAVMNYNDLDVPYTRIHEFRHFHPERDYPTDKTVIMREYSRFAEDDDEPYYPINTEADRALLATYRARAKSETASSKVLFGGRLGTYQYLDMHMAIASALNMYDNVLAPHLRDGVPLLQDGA
Chain of Cytochrome P450 2D6 (P10635 whole entry): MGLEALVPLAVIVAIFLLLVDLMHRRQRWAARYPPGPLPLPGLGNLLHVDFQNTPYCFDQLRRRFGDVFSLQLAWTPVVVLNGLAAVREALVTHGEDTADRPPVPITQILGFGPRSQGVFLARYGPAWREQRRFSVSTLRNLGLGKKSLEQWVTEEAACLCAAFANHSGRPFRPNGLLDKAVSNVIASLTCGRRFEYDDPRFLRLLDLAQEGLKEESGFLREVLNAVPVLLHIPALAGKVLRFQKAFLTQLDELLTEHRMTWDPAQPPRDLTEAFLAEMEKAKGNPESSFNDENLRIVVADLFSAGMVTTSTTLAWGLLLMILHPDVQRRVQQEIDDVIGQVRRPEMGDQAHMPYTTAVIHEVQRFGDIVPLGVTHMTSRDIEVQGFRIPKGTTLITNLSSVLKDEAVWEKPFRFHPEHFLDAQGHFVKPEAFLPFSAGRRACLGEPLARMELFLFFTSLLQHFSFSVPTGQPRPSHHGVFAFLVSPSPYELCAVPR
Chain of Vasopressin V1a receptor (P37288 whole entry): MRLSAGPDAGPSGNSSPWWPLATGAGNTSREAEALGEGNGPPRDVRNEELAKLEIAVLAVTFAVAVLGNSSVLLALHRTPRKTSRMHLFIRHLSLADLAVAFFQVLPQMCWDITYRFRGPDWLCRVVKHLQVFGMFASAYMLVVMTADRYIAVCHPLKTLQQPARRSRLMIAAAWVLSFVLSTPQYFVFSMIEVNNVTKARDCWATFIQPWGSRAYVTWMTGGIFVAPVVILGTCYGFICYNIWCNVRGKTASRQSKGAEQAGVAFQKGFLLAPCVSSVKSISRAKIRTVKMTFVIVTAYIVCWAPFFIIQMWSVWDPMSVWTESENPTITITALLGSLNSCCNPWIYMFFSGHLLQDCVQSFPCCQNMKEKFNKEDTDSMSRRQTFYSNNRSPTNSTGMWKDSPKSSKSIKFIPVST
Chain of Oxytocin receptor (P30559 whole entry): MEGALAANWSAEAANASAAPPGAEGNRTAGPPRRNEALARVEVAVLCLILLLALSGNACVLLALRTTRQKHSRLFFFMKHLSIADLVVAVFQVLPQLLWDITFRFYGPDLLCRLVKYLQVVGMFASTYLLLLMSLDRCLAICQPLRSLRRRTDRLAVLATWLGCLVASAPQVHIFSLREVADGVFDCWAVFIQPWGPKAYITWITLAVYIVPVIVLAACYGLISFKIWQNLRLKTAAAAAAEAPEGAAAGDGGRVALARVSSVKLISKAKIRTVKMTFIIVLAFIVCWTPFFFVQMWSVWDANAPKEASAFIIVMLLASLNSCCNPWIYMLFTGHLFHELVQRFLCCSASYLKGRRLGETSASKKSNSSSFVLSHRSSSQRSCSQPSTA

CCNC(=O)COC(=O)c1cc(O)nc2ccccc12
inconclusive: AC50 [1] | AC50 [2] 15.8 µM

CCOc1ccc(-[n+]2c(-c3ccc(OC)cc3)cn3c2CCCCC3)cc1
inactive: EC50 [3] > 150 µM | IC50 [7] > 80 µM | IC50 [9] > 80 µM
active: AC50 [4] 2.13 µM | AC50 [5] 0.312 µM | AC50 [6] 48 µM | EC50 [8] 0.48 µM

O=C1c2cccc3c(N4CCCCC4)ccc(c23)C(=O)N1CCO
active: EC50 [10] 65.2 µM | EC50 [11] 4.75 µM | EC50 [12] 67.5 µM | AC50 [13] 151 µM | EC50 [14] 114 µM | EC50 [15] > 3.32 µM | EC50 [16] 164 µM | EC50 [18] 16.5 µM | EC50 [19] 94.8 µM
> 120 µM (not active): EC50 [17]
